PMC7367873, “Dissecting the sequence determinants for dephosphorylation by the catalytic subunits of phosphatases PP1 and PP2A” (Nature Communications, 2020)

What was measured:
[1] = tested on: GFP-14-3-3β and its binding proteins; assay: GFP-14-3-3β co-IP with LC-MS/MS label-free quantification, untreated versus PP1c-treated; set-up: species or system human
Protocol: (§1) HeLa Kyoto cells expressing transiently transfected pEGFP(C1)-14-3-3β or pEGFP(C1) control plasmid, were incubated with 20 nM Calyculin A (# 9902 S, Cell Signaling Technology) for 12 min. Cells were washed twice on ice with cold PBS and after addition of 500 µL lysis buffer (100 mM NaCl, 10 mM Tris, 0.1% IGEPAL, 1 mM EDTA, 1 mM EGTA, 20 nM Calyculin A, 1x cOmplete Mini protease inhibitor cocktail (Sigma), 1 mM DTT, 1 mM MnCl2) cells were scraped from plates, lysed by 10 pushes through an injection needle (21 G, BD) and the insoluble fraction was pelleted by centrifugation (10 min, 10^4 rcf, 4 °C). Supernatants were then subjected to incubation with 1 µM recombinant phosphatase or buffer for 1 h at 30 °C. Next, we subjected samples to immunoprecipitation using α-GFP nanobodies covalently coupled to agarose beads (2 h, 4 °C, obtained from the EMBL PEPcore Core Facility). Beads were then washed three times with lysis buffer and samples were eluted in 1x LDS sample buffer (Thermo Fisher Scientific) by heating to 70 °C for 10 min.
(§2) The samples were then reduced with 25 mM dithiothreitol (10 min at 70 °C) and alkylated with 55 mM chloroacetamide (room temperature, 30 min, in the dark). Proteins were run on a precast 4–12% NuPAGE gel (ThermoFisher Scientific) for about 1 cm to concentrate the sample prior to in-gel tryptic digestion, which was performed according to the standard procedures. The peptides obtained were dried to completeness and resuspended in 12 µL of buffer A (0.1% FA), and 5 µL of sample were injected per MS measurement. The experiment was carried out in three independent replicates.
(§3) The samples were analyzed by LC-MS/MS on a Dionex Ultimate 3000 nano-HPLC coupled online to a Fusion Lumos Tribrid mass spectrometer (Thermo Fisher Scientific). Peptides were delivered to a trap column (75 µm × 2 cm, packed in-house with 5 µm C18 resin; Reprosil PUR AQ, Dr. Maisch) and washed using 0.1% FA at a flow rate of 5 µL/min for 10 min. Subsequently, peptides were transferred to an analytical column (75 µm × 45 cm, packed in-house with 3 µm C18 resin; Reprosil Gold) applying a flow rate of 300 nL/min and separated using a 60 min linear gradient from 4% to 32% LC solvent B (0.1% FA, 5% DMSO in ACN) in LC solvent A (0.1% FA in 5% DMSO). The eluate from the analytical column was sprayed via a stainless steel emitter (Thermo Fisher Scientific) at a source voltage of 2.1 kV into the mass spectrometer. The transfer capillary was heated to 275 °C. The Fusion Lumos was operated in positive ionization mode and data-dependent acquisition (DDA), automatically switching between MS1 and MS2 spectrum acquisition. Full scan MS1 spectra were recorded in the Orbitrap from 360 to 1300 m/z at a resolution of 60k (automatic gain control (AGC) target value of 4e5 charges, maximum injection time (maxIT) of 50 ms). Up to 20 peptide precursors were isolated (isolation window, 1.7 m/z; maximum injection time, 25 ms; and AGC value, 1e5), fragmented by high-energy collision-induced dissociation (HCD) using 30% normalized collision energy (NCE), and analyzed at a resolution of 15k in the Orbitrap. Precursor ions that were singly charged, unassigned, or with charge states >6+ were excluded. The dynamic exclusion duration of fragmented precursor ions was 20 s.
(§4) Peptide and protein identification and LFQ were performed using MaxQuant software (version 1.6.1.0)[64] by searching the data against all canonical protein sequences as annotated in the Swissprot reference database (human proteins only, 20193 entries, downloaded 22 March 2016, internally annotated with PFAM domains) using the embedded search engine Andromeda[65]. The MaxQuant search was performed using two variable modifications; oxidation of methionine and N-terminal protein acetylation. Carbamidomethylation on cysteines was specified as a fixed modification. Trypsin (Trypsin/P) was specified as the proteolytic enzyme with up to two allowed missed cleavage sites.

[2] = tested on: GFP-14-3-3β; assay: GFP-14-3-3β co-IP with LC-MS/MS, untreated GFP-14-3-3β versus GFP control (14-3-3 interactome); format: binding, human
Protocol: as §1, §2, §3, §4

[3] = PP1 vs untreated, LFQ intensities, 3 replicates each
[4] = untreated vs GFP, LFQ intensities, 3 replicates each
[5] = GFP-14-3-3β co-IP LC-MS/MS, PP1 vs untreated, student's t-test, label-free quantification, 3 replicates each
[6] = GFP-14-3-3β co-IP LC-MS/MS, untreated vs GFP, student's t-test, label-free quantification, 3 replicates each
[7] = pairwise comparison PP1 vs untreated
[8] = pairwise comparison untreated vs GFP
[9] = PP1 vs untreated, LFQ intensities, replicates 1-3
[10] = untreated vs GFP, LFQ intensities, replicates 1-3
[11] = pairwise comparison PP1 vs untreated, student's t-test, 3 replicates each, LC-MS/MS label-free quantification
[12] = pairwise comparison untreated GFP-14-3-3β vs GFP, student's t-test, 3 replicates each, LC-MS/MS label-free quantification

Question: Which “Difference (log2), PP1 vs untreated” value [1, 3] does the source give for TFAM here?
Answer: 0.5786 log2

Question: And the “Difference (log2), untreated vs GFP” value [2, 4]?
Answer: -2.855 log2

Question: With TIMM50 as the substance, how does the “Difference (log2), PP1 vs untreated” value [1, 5] read?
Answer: -0.2989 log2

Question: And the “Difference (log2), untreated vs GFP” value [2, 6]?
Answer: 1.085 log2

Question: How did the “Difference (log2), PP1 vs untreated” value [1, 7] turn out when TJP1 was run?
Answer: -0.07001 log2

Question: And the “Difference (log2), untreated vs GFP” value [2, 8]?
Answer: 1.92 log2

Question: TNKS1BP1 was tested. Which “Difference (log2), PP1 vs untreated” value [1, 9] did it give?
Answer: -1.162 log2

Question: What about the “Difference (log2), untreated vs GFP” value [2, 10] of the same substance?
Answer: 1.91 log2

Question: TOMM40 was tested. Which “Difference (log2), PP1 vs untreated” value [1, 7] did it give?
Answer: -0.1328 log2

Question: What about the “Difference (log2), untreated vs GFP” value [2, 8] of the same substance?
Answer: 1.138 log2

Question: Which “Difference (log2), PP1 vs untreated” value [1, 5] does the source give for TOP2A here?
Answer: -0.6623 log2

Question: And the “Difference (log2), untreated vs GFP” value [2, 6]?
Answer: 3 log2

Question: TPM4 was tested. Which “Difference (log2), PP1 vs untreated” value [1, 11] did it give?
Answer: -3.308 log2

Question: What about the “Difference (log2), untreated vs GFP” value [2, 12] of the same substance?
Answer: 0.1774 log2

Question: For TRIM25, which “Difference (log2), PP1 vs untreated” value [1, 7] is on record?
Answer: 0.1738 log2

Question: And the “Difference (log2), untreated vs GFP” value [2, 8]?
Answer: -0.2184 log2

Question: TRIM29 was tested. Which “Difference (log2), PP1 vs untreated” value [1, 5] did it give?
Answer: -0.3516 log2

Question: What about the “Difference (log2), untreated vs GFP” value [2, 6] of the same substance?
Answer: 0.4899 log2

Question: Which results are given for TSC2?
Answer: Difference (log2), PP1 vs untreated [1, 11]: -4.834 log2; Difference (log2), untreated vs GFP [2, 12]: 4.192 log2

Question: TTC27 was tested. Which “Difference (log2), PP1 vs untreated” value [1, 3] did it give?
Answer: 0.3393 log2

Question: And the “Difference (log2), untreated vs GFP” value [2, 4]?
Answer: 0.5169 log2

Question: How did the “Difference (log2), PP1 vs untreated” value [1, 11] turn out when TTC28 was run?
Answer: -4.888 log2

Question: And the “Difference (log2), untreated vs GFP” value [2, 12]?
Answer: 4.184 log2

Question: Which “Difference (log2), PP1 vs untreated” value [1, 7] does the source give for TUBA1B here?
Answer: 0.07589 log2

Question: What about the “Difference (log2), untreated vs GFP” value [2, 8] of the same substance?
Answer: -0.8319 log2

Question: Which results are given for TUBA4A?
Answer: Difference (log2), PP1 vs untreated [1, 3]: 0.3784 log2; Difference (log2), untreated vs GFP [2, 4]: -0.9346 log2

Question: TUBB was tested. Which “Difference (log2), PP1 vs untreated” value [1, 5] did it give?
Answer: -0.1729 log2

Question: And the “Difference (log2), untreated vs GFP” value [2, 6]?
Answer: -1.012 log2

Question: With TUBB4B as the substance, how does the “Difference (log2), PP1 vs untreated” value [1, 5] read?
Answer: -0.5591 log2

Question: And the “Difference (log2), untreated vs GFP” value [2, 6]?
Answer: -0.8458 log2

Question: USP10 was tested. Which “Difference (log2), PP1 vs untreated” value [1, 3] did it give?
Answer: 0.4174 log2

Question: And the “Difference (log2), untreated vs GFP” value [2, 4]?
Answer: 1.017 log2

Question: VDAC1 was tested. Which “Difference (log2), PP1 vs untreated” value [1, 3] did it give?
Answer: 0.6266 log2

Question: And the “Difference (log2), untreated vs GFP” value [2, 4]?
Answer: 1.0866 log2

Question: With VIM as the substance, how does the “Difference (log2), PP1 vs untreated” value [1, 7] read?
Answer: 0.1241 log2

Question: And the “Difference (log2), untreated vs GFP” value [2, 8]?
Answer: 0.4109 log2

Question: Which results are given for VPS13D?
Answer: Difference (log2), PP1 vs untreated [1, 11]: -2.609 log2; Difference (log2), untreated vs GFP [2, 12]: 3.223 log2

Question: Which “Difference (log2), PP1 vs untreated” value [1, 11] does the source give for WDR62 here?
Answer: -3.602 log2

Question: What about the “Difference (log2), untreated vs GFP” value [2, 12] of the same substance?
Answer: 4.129 log2

Question: How did the “Difference (log2), PP1 vs untreated” value [1, 11] turn out when WWC1 was run?
Answer: -3.748 log2

Question: And the “Difference (log2), untreated vs GFP” value [2, 12]?
Answer: 3.436 log2

Question: For WWC2, which “Difference (log2), PP1 vs untreated” value [1, 11] is on record?
Answer: -3.571 log2

Question: And the “Difference (log2), untreated vs GFP” value [2, 12]?
Answer: 4.409 log2

Question: What does the source list for WWTR1?
Answer: Difference (log2), PP1 vs untreated [1, 11]: -4.48 log2; Difference (log2), untreated vs GFP [2, 12]: 5.399 log2

Question: What does the source list for XRCC5?
Answer: Difference (log2), PP1 vs untreated [1, 7]: 0.08186 log2; Difference (log2), untreated vs GFP [2, 8]: -0.1105 log2

Question: How did the “Difference (log2), PP1 vs untreated” value [1, 7] turn out when XRCC6 was run?
Answer: -0.1289 log2

Question: And the “Difference (log2), untreated vs GFP” value [2, 8]?
Answer: -0.01757 log2

Question: What does the source list for YAP1?
Answer: Difference (log2), PP1 vs untreated [1, 11]: -2.787 log2; Difference (log2), untreated vs GFP [2, 12]: 8.338 log2

Question: YES1 was tested. Which “Difference (log2), PP1 vs untreated” value [1, 9] did it give?
Answer: -0.8848 log2

Question: And the “Difference (log2), untreated vs GFP” value [2, 10]?
Answer: -0.5463 log2

Question: Which “Difference (log2), PP1 vs untreated” value [1, 5] does the source give for YWHAB here?
Answer: -0.475 log2

Question: And the “Difference (log2), untreated vs GFP” value [2, 6]?
Answer: 6.723 log2

Question: How did the “Difference (log2), PP1 vs untreated” value [1, 9] turn out when YWHAE was run?
Answer: -1.3 log2

Question: And the “Difference (log2), untreated vs GFP” value [2, 10]?
Answer: 6.648 log2

Question: How did the “Difference (log2), PP1 vs untreated” value [1, 9] turn out when YWHAG was run?
Answer: -1.2523 log2

Question: What about the “Difference (log2), untreated vs GFP” value [2, 10] of the same substance?
Answer: 8.569 log2

Question: How did the “Difference (log2), PP1 vs untreated” value [1, 9] turn out when YWHAQ was run?
Answer: -1.354 log2

Question: What about the “Difference (log2), untreated vs GFP” value [2, 10] of the same substance?
Answer: 7.871 log2

Question: YWHAZ was tested. Which “Difference (log2), PP1 vs untreated” value [1, 9] did it give?
Answer: -1.298 log2

Question: And the “Difference (log2), untreated vs GFP” value [2, 10]?
Answer: 6.453 log2

Question: Which results are given for ZC3H4?
Answer: Difference (log2), PP1 vs untreated [1, 7]: -0.1033 log2; Difference (log2), untreated vs GFP [2, 8]: 0.7684 log2
